Patent US8329675B2, “Inhibitors of fatty acid amide hydrolase” (Infinity Pharmaceuticals, Inc., priority 2006, dated 2012)

biological target: T1, human FAAH (Homo sapiens, UniProt O00519); assay: Human FAAH biochemical inhibition assay (AMC arachidonoyl amide fluorescence); conditions: Table 2, human FAAH (no asterisk); read-out: Activity (Ki)
T1 construct: host or cells: COS-7 cells, transient transfection; 13,000 g membrane fraction solubilised in 1% Triton X-100
T1 sequence (O00519 1-579): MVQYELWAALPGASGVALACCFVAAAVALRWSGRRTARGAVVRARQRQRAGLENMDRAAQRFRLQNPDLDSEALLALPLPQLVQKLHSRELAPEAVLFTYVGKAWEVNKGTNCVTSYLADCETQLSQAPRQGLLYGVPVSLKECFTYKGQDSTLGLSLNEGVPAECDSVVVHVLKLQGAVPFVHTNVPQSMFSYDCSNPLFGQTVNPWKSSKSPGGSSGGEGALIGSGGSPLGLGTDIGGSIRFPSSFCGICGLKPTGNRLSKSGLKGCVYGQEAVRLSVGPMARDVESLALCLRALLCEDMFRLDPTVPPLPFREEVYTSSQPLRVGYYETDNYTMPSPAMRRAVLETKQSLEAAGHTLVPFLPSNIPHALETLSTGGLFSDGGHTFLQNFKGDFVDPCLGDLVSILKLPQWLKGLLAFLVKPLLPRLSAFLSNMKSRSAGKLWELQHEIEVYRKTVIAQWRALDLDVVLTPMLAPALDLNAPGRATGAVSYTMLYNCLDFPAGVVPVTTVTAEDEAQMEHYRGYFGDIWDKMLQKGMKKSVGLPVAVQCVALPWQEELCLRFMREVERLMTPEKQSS
Experimental: The resulting solution is added into one dish of 30-40% confluent COS-7 cells in a drop-wise manner. The COS-7 cell dish is subsequently incubated for 48 hours. The cells are then harvested.
Harvest procedure: Media was aspirated from the dishes and the cells rinsed with 10 mL PBS. The PBS was removed and 3 mLs of PBS added to the dish. The dish was scraped to resuspend the cells, and the subsequent cell suspension collected into a 15 ml conical tube. The cells were pelleted by centrifugation at 1200 rpm for 5 minutes in a bench top centrifuge. PBS was removed and the cell pellet snap frozen in liquid nitrogen, store at −80 C.
The pellets were dounce homogenized and then sonicated to produce cell extract. The cell extract was subsequently centrifuged at 1000 g to remove cellular debris. The pellet was discarded and the supernatant centrifuged at 13,000 g for 20 minutes. The pellet contained membrane bound FAAH. The supernatant was discarded and the pellet resolubilized.
(2) Re-solubilization: The fraction of interest, (13,000 g, membrane fraction) was re-suspended in re-suspension buffer (20 mM Hepes pH 7.8, 10% v/v Glycerol, 1 mM EDTA, 1% Triton X-100) (2.3 mL re-suspension and the sample incubated on ice for 1 hour and then centrifuged to at 13,000 g remove any particulate matter. The supernatant containing solubilized human FAAH was aliquoted and snap frozen in liquid nitrogen and stored at −80° C. until use.
FAAH reaction buffer: 50 mM Hepes (pH 7.5), 1 mM EDTA, 0.2% Triton X-100.
Human FAAH assay; Experimental Protocol: A 0.1 mg/mL Human FAAH solution is made up in FAAH reaction buffer, and 24 ul pipetted into a 384 well plate. To this is added 1 uL of a 3 fold serially diluted inhibitor from a DMSO stock solution. The FAAH solution and inhibitor are incubated for 30 minutes at room temperature. The FAAH reaction is initiated by the addition of 25 uL of 40 uM AMC Arachidonoyl Amide in FAAH reaction buffer, yielding a final reaction human FAAH preparation concentration of 0.05 mg/ml and AMC-Arachidonoyl substrate concentration of 20 uM, reaction volume 50 uL. The reaction is allowed to proceed for 4 hours at room temperature. […] The microtiter plate in read in the envision plate reader.

| SMILES | Ki [nM] |
| --- | --- |
| OB(O)c1ccc(OCCc2cccc(OCCCc3ccccc3)c2)cc1F [II-17] | < 10 |
| CCCCOc1cccc(CCOc2ccc(B(O)O)c(F)c2)c1 [II-18] | < 10 |
| O=C(CCCCc1ccccc1)Nc1cccc(CCOc2ccc(B(O)O)c(F)c2)c1 [II-19] | < 10 |
| OB(O)c1ccc(-c2cccc(F)c2)c(Cl)c1 [II-20] | 10 to 100 |
| CCCCCC(=O)Nc1cccc(CCOc2ccc(B(O)O)c(F)c2)c1 [II-21] | < 10 |
| CN(C)CCCC(=O)Nc1cccc(CCOc2ccc(B(O)O)c(F)c2)c1 [II-22] | 10 to 1000 |
| OB(O)c1csc2c(Cl)cccc12 [II-23] | 10 to 100 |
| OB(O)c1csc2cc(Cl)ccc12 [II-24] | 10 to 100 |
| O=C1c2cc(B(O)O)ccc2CC1Cc1ccccc1 (stereo not drawn) [II-25] | < 10 |
| OB(O)c1ccc(-c2cccc(-c3ccccc3)c2)cc1F [II-26] | < 10 |
| O=C(CCc1ccc(B(O)O)c(F)c1)c1ccccc1 [II-27] | < 10 |
| OB(O)c1ccc(COCc2ccccc2)cc1F [II-28] | < 10 |
| O=C1c2ccc(B(O)O)cc2CC1Cc1ccccc1 (stereo not drawn) [II-29] | < 10 |
| OB(O)c1ccc2c(c1)Cc1ccccc1-2 [II-30] | 10 to 100 |
| OB(O)c1ccc2sc3ccccc3c2c1 [II-31] | 10 to 1000 |
| Cc1ccc(C)n1-c1ccc(B(O)O)cc1 [II-32] | > 1000 |
| Cc1cc(B(O)O)ccc1-c1ccccc1 [II-33] | 10 to 100 |
| Nc1ccc(CCOc2ccc(B(O)O)c(F)c2)cc1 [II-35] | < 10 |
| OB(O)c1ccc(-c2nc3ccccc3s2)cc1 [II-36] | > 1000 |
| Nc1cccc(CCOc2ccc(B(O)O)c(F)c2)c1 [II-37] | < 10 |
| COc1cccc2c(C(O)O)coc12 [II-38] | > 1000 |
| CC(C)(C)OC(=O)Nc1ccc(CCOc2ccc(B(O)O)c(F)c2)cc1 [II-39] | 10 to 100 |
| O=[N+]([O-])c1cccc(CCOc2ccc(B(O)O)c(F)c2)c1 [II-40] | > 1000 |
| Cn1c(-c2ccc(B(O)O)cc2)nc2ccccc21 [II-41] | > 1000 |
| Cc1nc2cc(B(O)O)ccc2s1 [II-42] | 10 to 1000 |

| SMILES | Ki [nM] |
| --- | --- |
| OB(O)c1ccc(COCc2ccccc2)c(Cl)c1 [II-43] | < 10 |
| O=C(CCc1ccccc1)c1ccc(B(O)O)c(F)c1 [II-44] | < 10 |
| Cc1ncc(-c2ccc(B(O)O)cc2)s1 [II-45] | > 1000 |
| OB(O)c1ccc(CCCc2ccccc2)cc1F [II-46] | < 10 |
| OB(O)c1ccc2occc2c1 [II-47] | 10 to 1000 |
| OB(O)c1ccc(COCc2cc(Cl)cc(Cl)c2)cc1F [II-48] | < 10 |
| OB(O)c1ccc2sccc2c1 [II-49] | 10 to 1000 |
| CCOc1ccc(CCOc2ccc(B(O)O)c(F)c2)cc1 [II-50] | < 10 |
| COc1cccc(CCOc2ccc(B(O)O)c(F)c2)c1 [II-51] | < 10 |
| OB(O)c1ccc(OCCc2ccc(C(F)(F)F)cc2)cc1F [II-52] | < 10 |
| OB(O)c1ccc(OCCc2cccc(C(F)(F)F)c2)cc1F [II-53] | < 10 |
| c1ccc(CCCB(Oc2cccc3cccnc23)c2ccc(Oc3ccccc3)cc2)cc1 [II-54] | < 10 |
| CCCCB(Oc1cccc2cccnc12)c1ccc(Oc2ccccc2)cc1 [II-55] | < 10 |
| OB(O)c1ccc(OCCc2ccccc2)c(Cl)c1 [II-57] | < 10 |
| Cc1sc2ccccc2c1B(O)O [II-58] | > 1000 |
| OB(O)c1ccc(-c2ccco2)cc1 [II-59] | 10 to 100 |
| Cc1ccc2ccc(B(O)O)c(F)c2n1 [II-60] | > 1000 |
| OB(O)c1ccc(OCCc2cccc(Cl)c2)cc1F [II-61] | < 10 |
| OB(O)c1ccc(OCCc2ccc(Cl)c(Cl)c2)cc1F [II-62] | < 10 |
| OB(O)c1ccc(C(OCc2ccccc2)c2ccccc2)cc1 (stereo not drawn) [II-63] | 10 to 1000 |
| OB(O)c1ccc(-c2nc3ccccc3[nH]2)cc1 [II-64] | > 1000 |
| Cc1ccc2scc(B(O)O)c2c1 [II-65] | 10 to 1000 |
| OB(c1ccccc1)c1ccc(Oc2ccccc2)cc1 [II-66] | 10 to 100 |
| OB(O)c1ccc2scc(COc3ccccc3)c2c1 [II-67] | > 1000 |
| OB(O)c1ccc(CCCc2ccccc2)cc1 [II-68] | < 10 |

Continued, values first:

| Ki [nM] | SMILES |
| --- | --- |
| 10 to 1000 | OB(O)c1ccc(OCCN2CCCCC2)cc1F [II-69] |
| < 10 | OB(O)c1ccc(COCc2ccc(C(F)(F)F)cc2)cc1F [II-71] |
| < 10 | OB(O)c1ccc(COCc2cccc(C(F)(F)F)c2)cc1F [II-72] |
| < 10 | OB(O)c1ccc2sc(COc3ccccc3)cc2c1 [II-73] |
| < 10 | OB(O)c1ccc(COCc2ccccc2C(F)(F)F)cc1F [II-74] |
| < 10 | c1ccc(Oc2ccc(B(Oc3cccc4cccnc34)c3ccccc3)cc2)cc1 [II-75] |
| < 10 | O=C(CCCc1ccc(B(O)O)cc1)c1ccccc1 [II-76] |
| 10 to 100 | OB(O)c1ccc(-c2cnco2)cc1 [II-77] |
| < 10 | CN(C)c1cccc(Oc2ccc(B(O)O)cc2)c1 [II-78] |
| > 1000 | [O-][S+](Cc1ccc(B(O)O)c(F)c1)c1ccccc1 (stereo not drawn) [II-79] |
| > 1000 | O=S(=O)(Cc1ccccc1)Cc1ccc(B(O)O)c(F)c1 [II-80] |
| 10 to 1000 | [O-][S+](Cc1ccccc1)Cc1ccc(B(O)O)c(F)c1 (stereo not drawn) [II-81] |
| < 10 | OB(O)c1ccc(Cc2ccccc2)cc1 [II-82] |
| > 1000 | OB(c1ccccc1)c1ccccc1 [II-83] |
| 10 to 100 | OB(O)c1ccc(C(O)c2ccccc2)cc1 (stereo not drawn) [II-84] |
| < 10 | OB(O)c1ccc(Oc2cccc(F)c2)c(F)c1 [II-85] |
| < 10 | C[N+]12CC(=O)O[B-]1(c1ccc(-c3cccc(F)c3)cc1F)OC(=O)C2 (stereo not drawn) [II-86] |
| > 1000 | CNc1cc(B(O)O)cc(C(=O)O)c1 [II-87] |
| > 1000 | CN(C)c1cc(B(O)O)cc(C(=O)O)c1 [II-88] |
| 10 to 100 | CN(Cc1ccccc1)Cc1ccc(B(O)O)c(F)c1 [II-90] |

| Ki [nM] | SMILES |
| --- | --- |
| < 10 | OB(O)c1ccc(CN2CCc3ccccc32)cc1F [II-91] |
| < 10 | OB(O)c1ccc(OCCC2CCCCC2)cc1F [II-92] |
| 10 to 100 | OB(O)c1ccc(COC2C3CC4CC(C3)CC2C4)cc1 (stereo not drawn) [II-93] |
| 10 to 100 | OB(O)c1ccc(COCc2ccccc2-c2ccccc2)cc1 [II-94] |
| < 10 | OB(O)c1ccc2c(c1)CCC(OCc1ccccc1)C2 (stereo not drawn) [II-95] |
| 10 to 100 | O=C(N[C@H](COc1ccc(B(O)O)c(F)c1)Cc1ccccc1)c1ccccc1 [II-96] |
| 10 to 1000 | CN(Cc1ccccc1)[C@H](COc1ccc(B(O)O)c(F)c1)Cc1ccccc1 [II-97] |
| > 1000 | CN(C)[C@H](COc1ccc(B(O)O)c(F)c1)Cc1ccccc1 [II-98] |
| > 1000 | OB(O)Cc1ccc(-c2ccccc2)cc1 [II-99] |
| 10 to 100 | OB(O)c1ccc(COCC2CCCCC2)cc1 [II-100] |
| 10 to 100 | OB(O)c1ccc(COCC23CC4CC(CC(C4)C2)C3)cc1 [II-101] |
| 10 to 100 | OB(O)c1ccc(COCC2CCCCO2)cc1 (stereo not drawn) [II-102] |
| > 1000 | CN(C)[C@@H](COc1ccc(B(O)O)c(F)c1)Cc1ccccc1 [II-103] |
| < 10 | OB(O)c1ccc2oc(COc3ccccc3)cc2c1 [II-104] |
| 10 to 1000 | O=C(N[C@@H](COc1ccc(B(O)O)c(F)c1)Cc1ccccc1)c1ccccc1 [II-105] |
| 10 to 1000 | CN(Cc1ccccc1)[C@@H](COc1ccc(B(O)O)c(F)c1)Cc1ccccc1 [II-106] |
| 10 to 100 | CC(C)(C)OC(=O)N1CCC[C@H]1COCc1ccc(B(O)O)cc1 [II-107] |
| 10 to 100 | OB(O)c1ccc(OC[C@@H](COCc2ccccc2)OCc2ccccc2)cc1F [II-108] |
| < 10 | OB(O)c1ccc(OCCc2cccnc2)cc1F [II-109] |
| < 10 | OB(O)c1ccc(OCCc2ccncc2)cc1F [II-110] |
